Data: patent EP0126970A2, “Anxiolytic and anti-depressant thienopyridine derivatives” (BEECHAM GROUP PLC, priority 1983, dated 1984)
Structures can show the parent of a compound that is named as a salt.

Assays:
[1] = molecular target: benzodiazepine receptors; test: Radioligand binding, displacement of [3H]-Flunitrazepam; details: rat whole brain membranes, 0.5nM [3H] ligand; read-out: [^3H]-Flu Ki
Protocol: (§1) An interaction with benzodiazepine receptors in the central nervous system may be indicative of anxiolytic activity since inhibition of benzodiazepine binding correlates with the clinical efficacy of benzodiazepines. [^3H]-Flunitrazepam and [^3H]-βCCE selectively label benzodiazepine receptors and displacement of this specific binding in vitro by novel compounds in well-washed, frozen rat whole brain membranes is measured essentially as described by Martin and Candy (1978). At the fixed concentration of 0.5nM used, specific binding of both [^3H] ligands represents 80-90% of the total radioactivity bound. Non-specific binding is defined by 10µM clonazepam for each ligand. IC50 values are calculated from log [dose] against % inhibition curves; Ki values are determined using the Cheng-Prusoff equation.

[2] = molecular target: benzodiazepine receptors; test: Radioligand binding, displacement of [3H]-βCCE; details: rat whole brain membranes, 0.5nM [3H] ligand
Protocol: as §1

Row | Structure (SMILES) | Ki [1] | Ki [2]
1 | CCc1cc2c3nn(-c4ccc(Cl)cc4)c(=O)c-3c[nH]c2s1 [Example E28, 2-(4-Chlorophenyl)-2,5-dihydro-7-ethyl-3H-pyrazolo[3,4-d] thieno[2,3-b]pyridin-3-one] | 1.8 nM | 
2 | CCOC(=O)c1cnc2ccsc2c1NNc1ccccn1 [Example E6, 7-(2-(2-Pyridyl)hydrazino)-thieno[3,2-b]pyridihe-6-carboxylic acid, ethyl ester, monohydrochloride] | 350 nM | 360 nM
3 | COc1ccc(-n2nc3c4sccc4[nH]cc-3c2=O)cc1 [Example E24, 2,5-Dihydro-2-(4-methoxyphenl)-3H-pyrazolo[3,4-d]thieno [3,2-b]pyridin-3-one] | 0.23 nM | 
4 | Cc1[nH]c2ccsc2c2nn(-c3ccc(Cl)cc3)c(=O)c1-2 [Example E20, 2-(4-Chlorophenyl)-2,5-dihydro-4-methyl-3H-pyrazolo [3,4-d]thieno[3,2-b]pyridin-3-one] | 1000 nM | 2200 nM
5 | O=c1c2c[nH]c3ccsc3c-2nn1-c1ccc(Cl)cc1 [Example E21, 2-(4-Chlorophenyl)-2,5-dihydro-3H-pyrazolo[3,4-d]thieno [3,2-b]pyridin-3-one] | 0.46 nM | 0.38 nM
6 | CCc1cc2c3nn(-c4ccc(Cl)cc4)c(=O)c-3c(C)[nH]c2s1 [Example E29, 2-(4-Chlorophenyl)-2,5-dihydro-7-ethyl-4-methyl-3H-pyrazolo[3,4-d]thieno[2,3-b]pyridin-3-one] | 568 nM | 
7 | CCOC(=O)c1c(C)nc2ccsc2c1NNc1ccc(Cl)cc1 [Example E11, 7-(2-(4-Chlorophenyl)hydrazino)-5-methyl-thieno[3,2-b] pyridine-6-carboxylic acid, ethyl estet, monohydrochloride] | 200 nM | 290 nM
8 | CCOC(=O)c1cnc2ccsc2c1NNc1ccc(OC)cc1 [Example E8, 7-{2-(4-Methoxyphenyl)hydrazino)-thieno[3,2-b]pyridine-6-carboxylic acid, ethyl ester, monbhydrochloride] | 2400 nM | 3300 nM
9 | Cc1ccc(-n2nc3c4sccc4[nH]cc-3c2=O)cc1 [Example E23, 2,5-Dihydro-2-(4-methylphenyl)-3H-pyrazolo[3,4-d]thieno [3,2-b]pyridin-3-one] | 0.82 nM | 0.31 nM
10 | CCOC(=O)c1cnc2ccsc2c1NNc1ccc(C)cc1 [Example E5, 7-(2-(4-Methylphenyl)hyarazino)-thieno[3,2-b]pyridine-6-carboxylic acid, ethyl ester, tnonohydrochloride] | 6500 nM | > 100000 nM
11 | O=c1c2c[nH]c3ccsc3c-2nn1-c1ccccn1 [Example E30] | 0.7 nM | 
12 | CCOC(=O)c1cnc2ccsc2c1NNc1ccccc1 [Example E1, 7-(2-Phenylhydrazino)-thieno[3,2-b]pyridine-6-carboxylic acid, ethyl ester, monohydrochloride] | 7000 nM | 5000 nM
13 | Cc1[nH]c2ccsc2c2nn(-c3ccccc3)c(=O)c1-2 [Example E25, 2,5-Dihydro-4-methl-2-phenyl-3H-pyrazolo[3,4-d]thieno [3,2-b]pyridin-3-one] | 99 nM | 107 nM
14 | O=c1c2c[nH]c3cscc3c-2nn1-c1ccc(Cl)cc1 [Example E31, 2-(4-Chlorophenyl)-2,5-dihydro-3H-pyrazolo[3,4-d]thieno [3,4-b]pyridin-3-one] | 0.32 nM | 
15 | CCOC(=O)c1cnc2ccsc2c1NNc1ccc([N+](=O)[O-])cc1 [Example E3, 7-(2-(4-Nitrophenyl)hydrazino)-thieno[3,2-b]pyridine-6-carboxylic acid, ethyl ester, monohydrochloride] | 1000 nM | 1500 nM
16 | O=c1c2c[nH]c3ccsc3c-2nn1-c1cc(Cl)cc(Cl)c1 [Example E22, 2-(3,5-Dichlorophenyl)-2,5-dihy dro-3H-pyrazolo[3,9-d] thieno[3,2-b]pyrirlin-3-one] | 180 nM | 170 nM
17 | CCOC(=O)c1c(C)nc2ccsc2c1NNc1ccccc1 [Example E10, 5-Methyl-7-(2-phenylhydrazino)-thieno[3,2-b]pyridine-6-carboxylic acid, ethyl ester, monohydrochloride] | 39000 nM | 23000 nM
